Source: ChEMBL document CHEMBL5390317, “Novel Indane-Containing NBTIs with Potent Anti-Gram-Negative Activity and Minimal hERG Inhibition” (ACS Med Chem Lett, 2023)
Values after ≈ are worked out from the molar mass of the structure shown.

How the values were obtained:
Escherichia coli [1] = assay: Antibacterial activity against Escherichia coli ATCC 25922 assessed as inhibition in bacterial growth incubated for 20 to 24 hrs by CLSI based broth microdilution method; format: functional; conditions: time 20-24 hrs
Acinetobacter baumannii [2] = assay: Antibacterial activity against Acinetobacter baumannii ATCC 19606 assessed as inhibition in bacterial growth incubated for 20 to 24 hrs by CLSI based broth microdilution method; format: functional; conditions: time 20-24 hrs
Klebsiella pneumoniae [3] = assay: Antibacterial activity against Klebsiella pneumoniae ATCC BAA-1705 assessed as inhibition in bacterial growth incubated for 20 to 24 hrs by CLSI based broth microdilution method; format: functional; conditions: time 20-24 hrs
Pseudomonas aeruginosa [4] = assay: Antibacterial activity against Pseudomonas aeruginosa ATCC 27853 assessed as inhibition in bacterial growth incubated for 20 to 24 hrs by CLSI based broth microdilution method; format: functional; conditions: time 20-24 hrs
DNA gyrase = DNA gyrase (Escherichia coli, UniProt P0AES4+P0AES6); assay: Inhibition of Escherichia coli DNA gyrase incubated for 80 mins by Transcreener ADP2 FI assay; format: protein-complex assay
hERG (KCNH2) [5] = molecular target: T1, hERG (KCNH2) (Homo sapiens, UniProt Q12809); assay: Inhibition of hERG potassium channel expressed in CHO cells at 10 uM by electrophysiological patch clamp assay relative to control; format: toxicity, cell-based; conditions: CHO cells expressing hERG
Escherichia coli [6] = assay: Antibacterial activity against Escherichia coli K-12 BW25113 assessed as inhibition in bacterial growth incubated for 20 to 24 hrs by CLSI based broth microdilution method; format: functional
Escherichia coli [7] = assay: Antibacterial activity against Escherichia coli K-12 BW25113 deltaTolC assessed as inhibition in bacterial growth incubated for 20 to 24 hrs by CLSI based broth microdilution method; format: functional; conditions: time 20-24 hrs
Escherichia coli [8] = assay: Antibacterial activity against Escherichia coli ATCC 35218 assessed as inhibition in bacterial growth incubated for 20 to 24 hrs by CLSI based broth microdilution method; format: functional
Escherichia coli [9] = assay: Antibacterial activity against Escherichia coli ATCC BAA-2340 assessed as inhibition in bacterial growth incubated for 20 to 24 hrs by CLSI based broth microdilution method; format: functional
Acinetobacter baumannii [10] = assay: Antibacterial activity against Acinetobacter baumannii ATCC 51432 assessed as inhibition in bacterial growth incubated for 20 to 24 hrs by CLSI based broth microdilution method; format: functional
Acinetobacter baumannii [11] = assay: Antibacterial activity against Acinetobacter baumannii ATCC BAA-747 assessed as inhibition in bacterial growth incubated for 20 to 24 hrs by CLSI based broth microdilution method; format: functional
Klebsiella pneumoniae [12] = assay: Antibacterial activity against Klebsiella pneumoniae ATCC 10031 assessed as inhibition in bacterial growth incubated for 20 to 24 hrs by CLSI based broth microdilution method; format: functional; conditions: time 20-24 hrs
Klebsiella pneumoniae [13] = assay: Antibacterial activity against Klebsiella pneumoniae ATCC 700603 assessed as inhibition in bacterial growth incubated for 20 to 24 hrs by CLSI based broth microdilution method; format: functional
Klebsiella pneumoniae [14] = assay: Antibacterial activity against Klebsiella pneumoniae ATCC BAA-2146 assessed as inhibition in bacterial growth incubated for 20 to 24 hrs by CLSI based broth microdilution method; format: functional
Pseudomonas aeruginosa [15] = assay: Antibacterial activity against Pseudomonas aeruginosa NCTC 13437 assessed as inhibition in bacterial growth incubated for 20 to 24 hrs by CLSI based broth microdilution method; format: functional
Pseudomonas aeruginosa [16] = assay: Antibacterial activity against Pseudomonas aeruginosa NCTC 11451 assessed as inhibition in bacterial growth incubated for 20 to 24 hrs by CLSI based broth microdilution method; format: functional
Staphylococcus aureus [17] = assay: Antibacterial activity against Staphylococcus aureus ATCC BAA-1556 assessed as inhibition in bacterial growth incubated for 20 to 24 hrs by CLSI based broth microdilution method; format: functional
Staphylococcus aureus [18] = assay: Antibacterial activity against Staphylococcus aureus ATCC 29213 assessed as inhibition in bacterial growth incubated for 20 to 24 hrs by CLSI based broth microdilution method; format: functional; conditions: time 20-24 hrs
[19] = Inhibition of Escherichia coli topoisomerase 4 incubated for 120 mins by Transcreener ADP2 FI assay
hERG (KCNH2) [20] = molecular target: T1, hERG (KCNH2); assay: Inhibition of hERG potassium channel expressed in CHO cells at 1 uM by electrophysiological patch clamp assay relative to control; format: toxicity, cell-based; conditions: CHO cells expressing hERG
[21] = molecular target: Voltage-gated inwardly rectifying potassium channel KCNH2 (Homo sapiens, UniProt Q12809); assay: (§1) Inhibition of hERG potassium channel expressed in CHO cells by electrophysiological patch clamp assay; format: toxicity, cell-based; conditions: for IC20: human, cho
hERG (KCNH2) [22] = molecular target: T1, hERG (KCNH2); assay: as §1; format: toxicity, cell-based; conditions: human, CHO cells expressing hERG
[23] = Escherichia coli, K-12 BW25113, time 20-24 hrs, read-out: MIC
[24] = Escherichia coli, ATCC 35218, time 20-24 hrs, read-out: MIC
[25] = Escherichia coli, ATCC BAA-2340, time 20-24 hrs, read-out: MIC
[26] = Acinetobacter baumannii, ATCC 51432, time 20-24 hrs, read-out: MIC
[27] = Acinetobacter baumannii, ATCC BAA-747, time 20-24 hrs, read-out: MIC
[28] = Klebsiella pneumoniae, ATCC 700603, time 20-24 hrs, read-out: MIC
[29] = Klebsiella pneumoniae, ATCC BAA-2146, time 20-24 hrs, read-out: MIC
[30] = Pseudomonas aeruginosa, NCTC 13437, time 20-24 hrs, read-out: MIC
[31] = Pseudomonas aeruginosa, NCTC 11451, time 20-24 hrs, read-out: MIC
[32] = Staphylococcus aureus, ATCC BAA-1556, time 20-24 hrs, read-out: MIC
[33] = Staphylococcus aureus, ATCC 29213, read-out: MIC

Sequence of Voltage-gated inwardly rectifying potassium channel KCNH2 (Q12809 whole entry): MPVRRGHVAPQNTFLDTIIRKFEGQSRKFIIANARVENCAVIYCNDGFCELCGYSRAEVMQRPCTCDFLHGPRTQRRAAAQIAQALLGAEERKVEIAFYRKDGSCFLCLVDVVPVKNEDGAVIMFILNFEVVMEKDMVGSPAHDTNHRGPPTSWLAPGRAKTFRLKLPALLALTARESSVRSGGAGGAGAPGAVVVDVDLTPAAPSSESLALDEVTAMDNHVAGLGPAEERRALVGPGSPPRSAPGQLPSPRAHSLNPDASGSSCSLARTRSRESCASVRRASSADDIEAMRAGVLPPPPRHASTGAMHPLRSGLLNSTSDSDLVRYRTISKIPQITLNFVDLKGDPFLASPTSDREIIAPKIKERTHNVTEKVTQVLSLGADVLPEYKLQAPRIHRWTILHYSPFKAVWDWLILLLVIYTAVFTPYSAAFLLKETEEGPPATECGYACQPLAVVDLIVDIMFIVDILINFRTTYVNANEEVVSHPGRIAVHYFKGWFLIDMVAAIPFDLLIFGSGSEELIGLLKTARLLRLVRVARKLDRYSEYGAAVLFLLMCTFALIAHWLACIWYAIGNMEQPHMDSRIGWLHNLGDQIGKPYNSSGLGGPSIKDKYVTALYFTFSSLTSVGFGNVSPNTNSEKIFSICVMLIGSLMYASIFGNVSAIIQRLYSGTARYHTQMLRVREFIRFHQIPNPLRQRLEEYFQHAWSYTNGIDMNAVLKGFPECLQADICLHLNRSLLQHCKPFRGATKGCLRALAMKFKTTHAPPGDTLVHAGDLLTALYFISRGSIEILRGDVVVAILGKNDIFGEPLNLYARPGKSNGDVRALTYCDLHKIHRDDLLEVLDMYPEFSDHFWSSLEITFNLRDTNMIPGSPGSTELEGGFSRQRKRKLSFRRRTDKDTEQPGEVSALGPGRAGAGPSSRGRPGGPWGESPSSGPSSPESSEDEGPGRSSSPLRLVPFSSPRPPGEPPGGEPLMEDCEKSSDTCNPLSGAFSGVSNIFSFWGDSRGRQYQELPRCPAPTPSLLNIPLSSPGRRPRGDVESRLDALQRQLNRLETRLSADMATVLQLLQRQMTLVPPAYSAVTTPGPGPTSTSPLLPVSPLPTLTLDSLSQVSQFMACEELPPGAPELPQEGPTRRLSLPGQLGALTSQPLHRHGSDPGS
T1 sequence (Q12809 whole entry): as above

Row | Compound | MIC (Escherichia coli [1]) [µg/mL] | MIC (Acinetobacter baumannii [2]) [µg/mL] | MIC (Klebsiella pneumoniae [3]) [µg/mL] | MIC (Pseudomonas aeruginosa [4]) [µg/mL] | IC50 (DNA gyrase) [µM] | MIC (Escherichia coli [7]) [µg/mL] | MIC (Escherichia coli [8]; [24]) [µg/mL] | MIC (Escherichia coli [9]; [25]) [µg/mL] | MIC (Acinetobacter baumannii [10]; [26]) [µg/mL] | MIC (Acinetobacter baumannii [11]; [27]) [µg/mL] | MIC (Klebsiella pneumoniae [12]) [µg/mL] | MIC (Klebsiella pneumoniae [13]; [28]) [µg/mL] | MIC (Klebsiella pneumoniae [14]; [29]) [µg/mL] | MIC (Pseudomonas aeruginosa [15]; [30]) [µg/mL] | MIC (Pseudomonas aeruginosa [16]; [31]) [µg/mL] | MIC (Staphylococcus aureus [17]; [32]) [µg/mL] | MIC (Staphylococcus aureus [18]; [33]) [µg/mL] | IC50 [19] [µM] | IC50 [21] [µM] | IC20 [21] [µM] | further results
1 | C[C@H](C(=O)Nc1cc(F)c2c(c1)CC(CNCCC1CN(c3cnc4c(n3)NC(=O)CO4)C(=O)O1)C2)N(C)C (stereo in doubt; 2h) | – | – | – | – | – | – | – | – | – | – | – | – | – | – | – | – | – | – | 126 | 55 | MIC (Acinetobacter baumannii [10]; time 20-24 hrs): 8 µg/mL (≈ 14.8 µM); MIC (Acinetobacter baumannii [11]; time 20-24 hrs): 0.125 µg/mL (≈ 0.231 µM); MIC (Klebsiella pneumoniae [13]; time 20-24 hrs): 2 µg/mL (≈ 3.69 µM); MIC (Pseudomonas aeruginosa [15]; time 20-24 hrs): 4 µg/mL (≈ 7.39 µM); MIC (Pseudomonas aeruginosa [16]; time 20-24 hrs): 4 µg/mL (≈ 7.39 µM); MIC (Staphylococcus aureus [17]; time 20-24 hrs): 1 µg/mL (≈ 1.85 µM)
2 | C[C@@H](C(=O)Nc1cc(F)c2c(c1)CC(CNCCC1CN(c3cnc4c(n3)NC(=O)CO4)C(=O)O1)C2)N(C)C (stereo in doubt; 2i) | – | – | – | – | – | ≤ 0.06 | 0.125 (≈ 0.231 µM) | 0.125 (≈ 0.231 µM) | 8 (≈ 14.8 µM) | 0.25 (≈ 0.462 µM) | ≤ 0.06 | 2 (≈ 3.69 µM) | 8 (≈ 14.8 µM) | 2 (≈ 3.69 µM) | 4 (≈ 7.39 µM) | 1 (≈ 1.85 µM) | 0.25 (≈ 0.462 µM) | – | 105 | – | MIC (Escherichia coli [6]; time 20-24 hrs): <=0.06 ug ml-1; IC20 (hERG (KCNH2) [22]): 33 µM
3 | C[C@@H](C(=O)Nc1cc(F)c2c(c1)CC(CNCCC1CN(c3cnc4c(n3)NC(=O)CO4)C(=O)O1)C2)N(C)C (stereo in doubt; 2j) | – | – | – | – | – | – | – | – | – | – | – | – | – | – | – | – | – | – | 178 | 66 | MIC (Escherichia coli [6]; time 20-24 hrs): 0.125 µg/mL (≈ 0.231 µM); MIC (Escherichia coli [8]; time 20-24 hrs): 0.25 µg/mL (≈ 0.462 µM); MIC (Escherichia coli [9]; time 20-24 hrs): 0.25 µg/mL (≈ 0.462 µM); MIC (Acinetobacter baumannii [11]; time 20-24 hrs): 0.5 µg/mL (≈ 0.923 µM); MIC (Pseudomonas aeruginosa [15]; time 20-24 hrs): 2 µg/mL (≈ 3.69 µM); MIC (Staphylococcus aureus [18]): 0.25 µg/mL (≈ 0.462 µM)
4 | C[C@H](C(=O)Nc1cc(F)c2c(c1)CC(CNCCC1CN(c3cnc4c(n3)NC(=O)CO4)C(=O)O1)C2)N(C)C (stereo in doubt; 2g) | – | – | – | – | 0.026 | – | – | – | – | – | – | – | – | – | – | – | – | 0.013 | 251 | 81 | MIC (Escherichia coli [8]; time 20-24 hrs): 0.125 µg/mL (≈ 0.231 µM); MIC (Escherichia coli [9]; time 20-24 hrs): 0.125 µg/mL (≈ 0.231 µM); MIC (Acinetobacter baumannii [10]; time 20-24 hrs): 4 µg/mL (≈ 7.39 µM); MIC (Klebsiella pneumoniae [13]; time 20-24 hrs): 1 µg/mL (≈ 1.85 µM); MIC (Klebsiella pneumoniae [14]; time 20-24 hrs): 8 µg/mL (≈ 14.8 µM); MIC (Pseudomonas aeruginosa [16]; time 20-24 hrs): 2 µg/mL (≈ 3.69 µM); MIC (Staphylococcus aureus [17]; time 20-24 hrs): 0.5 µg/mL (≈ 0.923 µM)

Further lines, with some results ahead:

Row | MIC (Escherichia coli [1]) [µg/mL] | MIC (Acinetobacter baumannii [2]) [µg/mL] | MIC (Klebsiella pneumoniae [3]) [µg/mL] | MIC (Pseudomonas aeruginosa [4]) [µg/mL] | IC50 (DNA gyrase) [µM] | MIC (Escherichia coli [7]) [µg/mL] | MIC (Escherichia coli [8]; [24]) [µg/mL] | MIC (Escherichia coli [9]; [25]) [µg/mL] | MIC (Acinetobacter baumannii [10]; [26]) [µg/mL] | MIC (Acinetobacter baumannii [11]; [27]) [µg/mL] | MIC (Klebsiella pneumoniae [12]) [µg/mL] | MIC (Klebsiella pneumoniae [13]; [28]) [µg/mL] | MIC (Klebsiella pneumoniae [14]; [29]) [µg/mL] | MIC (Pseudomonas aeruginosa [15]; [30]) [µg/mL] | MIC (Pseudomonas aeruginosa [16]; [31]) [µg/mL] | MIC (Staphylococcus aureus [17]; [32]) [µg/mL] | MIC (Staphylococcus aureus [18]; [33]) [µg/mL] | IC50 [19] [µM] | Compound | IC50 [21] [µM] | IC20 [21] [µM] | further results
5 | 1 (≈ 1.75 µM) | 4 (≈ 7.01 µM) | 16 (≈ 28 µM) | 1 (≈ 1.75 µM) | 0.026 | ≤ 0.06 | 1 (≈ 1.75 µM) | 2 (≈ 3.5 µM) | 4 (≈ 7.01 µM) | 2 (≈ 3.5 µM) | ≤ 0.06 | 16 (≈ 28 µM) | 16 (≈ 28 µM) | 4 (≈ 7.01 µM) | 4 (≈ 7.01 µM) | 0.5 (≈ 0.876 µM) | 0.25 (≈ 0.438 µM) | 0.032 | CS(=O)(=O)NCCOc1cc(C#N)c2c(c1)CC(CNCCC1CN(c3ccc4c(n3)NC(=O)CO4)C(=O)O1)C2 (centres undefined) | > 20 | – | inhibition at 10 µM (hERG (KCNH2) [5]): 30%; MIC (Escherichia coli [6]; [23]): 0.5 µg/mL (≈ 0.876 µM); inhibition at 1 µM (hERG (KCNH2) [20]): < 1%; IC20 (hERG (KCNH2) [22]): 5.9 µM
6 | > 64 | > 64 | > 64 | > 64 | 0.6 | 8 (≈ 16 µM) | > 64 | > 64 | > 64 | > 64 | 16 (≈ 32 µM) | > 64 | > 64 | > 64 | > 64 | > 64 | > 64 | 0.37 | O=C(O)COc1cc(F)c2c(c1)CC(CNCCC1CN(c3ccc4c(n3)NC(=O)CO4)C(=O)O1)C2 (centres undefined) | – | – | MIC (Escherichia coli [6]; [23]): > 64 µg/mL
